Data on six compounds can be found in patent US20050260683A1, “Methods for diagnosing and treating pre-term labor” (University of Hawaii, priority 2002, published 2005).

One assay concerns PBEF gene expression. The following applies: Ognjanovic et al., cited from earlier work.
Another assay relates to IL-6. The following applies: Keelan et al.; cited from earlier work.
A further assay concerns IL-8. The following applies: Keelan et al.; Laham et al.; cited from earlier work.
In assay [1] the test system is PBEF gene expression in WISH cells. In words: PBEF gene expression in IL-1β-stimulated WISH cells with inhibitors, real-time PCR. It is filed as cell-based, human. The following applies: IL-1β 1 ng/ml; for effect on IL-1β-induced up-regulation of PBEF: inhibitor over a range of dilutions. The procedure: (§1) Thus, the human anmiotic epithelial-like cell line (WISH) was stimultated by addition of IL-1β (1 ng/ml) or by stretching (20%). In order to show any inhibitory effects on the expression of PBEF, a panel of inhibitors (SN50, Curcumin and PDTC) were added over a range of dilutions to both systems. Gene expression was quantitated by real-time PCR and normalized to 18 s.
(In qPCR the cycle at which signal appears reflects the starting amount.)

In the next assay the test system is NF-κB. In words: NF-κB translocation in WISH cells, anti-p65 immunolabeling. The format is cell-based, human. The following applies: after addition of IL-1β. The procedure: as §1
Peak translocation of NF-κB from the cytoplasm to the nucleus occurred one hour after addition of IL-1β and was clearly seen by immunolabeling with an antibody (anti-p65) to one of the subunits of NF-κB. Increased PBEF gene expression also resulted from IL-1β stimulation.

“Also recorded” adds a separate entry of the source. Read-outs that look alike come from different tables or passages of the source.

Consider TNF-α, for which the “PBEF gene expression / transcription” value was “induced” in the assay with PBEF gene expression and “stimulate” in the assay with PBEF gene expression (listed as TNF-A). For the same compound, in the assay with IL-6, the IL-6 transcription result is listed as “stimulate”. Further, the IL-8 transcription entry with IL-8 is “stimulate”.
For the compound `S=C(S)N1CCCC1` [PDTC], the “effect on IL-1β-induced up-regulation of PBEF” value in assay [1] is on record as “prevented the up-regulation of PBEF to varying degrees”.
Turning to `COc1cc(/C=C/C(=O)CC(=O)/C=C/c2ccc(O)c(OC)c2)ccc1O` [Curcumin], the “effect on IL-1β-induced up-regulation of PBEF” value in assay [1] is given as “prevented the up-regulation of PBEF to varying degrees”.
As for IL-6: cytokine interleukin-6, the “PBEF gene expression / transcription” value in the assay with PBEF gene expression is recorded as “induced”.
Regarding “IL-1β: proinflammatory cytokine interleukin-1-beta”, in assay [1], the “PBEF gene expression after stimulation” value is on record as “Increased”. The “time of peak translocation of NF-κB from the cytoplasm to the nucleus” value in the assay on NF-κB was “one hour”. Also, the “PBEF gene expression / transcription” value in the assay on PBEF gene expression is “stimulate; also recorded: induced”. Also, the IL-6 transcription result with IL-6 is on record as “stimulate”. In addition, the IL-8 transcription entry in the assay on IL-8 is listed as “stimulate”.
For IL-8: cytokine interleukin-8, the “PBEF gene expression / transcription” value in the assay on PBEF gene expression is “no such effect”.
